# Results reported in patent publication US4690949A, “Therapeutic drug for dementia” (priority 1985, dated 1987).
# “Also recorded” adds a separate entry of the source.
# How the values were obtained:
# [1] = Acute toxicity LD50 in mice; conditions: mouse, in vivo
# patients with dementia [2] = assay: Side effects in clinical study; format: in vivo
# Protocol: (§1) Administration schedule of L-Threo-DOPS and schedule of clinical evaluation are as follows: [drawing 3]
# (§2) Threo-DOPS were administered as follows; immediately after meals at 8:00, 12:00 and 17:00. Various psychological tests were performed at 10:00. The evaluations were performed on the day before and after administration of Threo-DOPS.
# parkinsonian patients = assay: Clinical studies on parkinsonian patients; format: in vivo
# patients with dementia [3] = assay: Overall clinical evaluation of effectiveness in dementia; format: in vivo
# From the text: (§3) We have used following various tests: WAIS, Hasegawa's scale for intelligence, Osaka University tests for activity of daily life as well as mental functions, and records of psychological states. Furthermore, free association of letters and categories, paired memory test, Bourdon's test could safely be used to evaluate intelligence of demented patients, even with handicaps in hands or legs. We have done each test 4 times per patient at each point to evaluate the patient's mental state and thus this made us possible to get satisfactory statistical analysis.
# Dementia could be classified into various clinical types according to the ethiology; such as Alzheimer's disease (AZ), senile dementia of Alzheimer type (SDAT), dementia due to the cerebral vascular diseases. We included these various types of dementia in this study.
# as §1, §2
# Evaluations were made as described below or by the methods used commonly.
# decarboxylase = conditions: compared with L-DOPA; cited from earlier work
# [4] = system: aromatic L-amino acid decarboxylase; conditions: cited from earlier work
# patients with dementia [5] = assay: Bourdon's test (Bourdon's delection test); format: in vivo; parameters: key to Bourdon's test (change after treatment): improved; .dwnarw.: aggravated; →: unchanged
# From the text: as §3, §1, §2
# 3. Bourdon's delection test:
# Matsumoto K and Samezima K: Introduction to Clinical Psychology Tests, Igaku Shuppan Sha (Tokyo), 1977, pp. 83-87
# In this test, the original method was modified by enlarging the chart to make it easier for patients to see and conducting 4 test runs starting at different lines to investigate how far the task could be done in 30 seconds.
# patients with dementia [6] = assay: N test (N mental function test); format: in vivo; parameters: key to N test (change after treatment): improved; .dwnarw.: aggravated; →: unchanged
# From the text: as §3, §1, §2
# Inoue, O.: Medical Journal of the Osaka University 26, 375-394 (1974)
# patients with dementia [7] = assay: P300 auditory evoked brain potential; format: in vivo; parameters: key: +: appeared; -: disappeared
# Protocol: as §1, §2
# When two kinds of auditory stimuli are given randomly, a positive brain potential (P300) appears with a latency of about 300 msec in normal subjects and this response has been considered to reflect gnostic function. [Sutton, S. et al.: Science 150, 1187-1188 (1965)].
# Using the method of Goodin, D. S. et al., the present inventors asked the subject to hear sounds of 1000 Hz and also 2000 Hz randomly given at intervals of about 1 second and to count the sounds of 2000 Hz which appeared 15% of the total number of sounds which were 400. The evoked potentials were averaged and totalled for each 1000 Hz and 2000 Hz stimulations and the latency and the amplitude of P300 were measured.
# patients with dementia [8] = assay: Free association (letters and categories); format: in vivo; parameters: key to Free association, Letter / Free association, Category: improved; .dwnarw.: aggravated; →: unchanged
# From the text: as §3, §1
# Threo-DOPS were administered as follows; immediately after meals at 8:00, 12:00 and 17:00. Various psychological tests were performed at 10:00. The evaluations were performed on the day before and after administration of Threo-DOPS. […]
# In this test, the subject was asked to say what would occur in mind by free association in response to the 4 letters of " " (a), " " (ka), " " (sa) and " " (ha) and the four categories of "fruits" or "vegetables", "flowers or trees", "animals" and "countries of the world" within 90 seconds and the number of words every 30 seconds was counted.
# [9] = Clinical comparison of L-isomer and DL-form activity; format: in vivo
# patients with dementia [10] = assay: Digit symbol test (modified WAIS); format: in vivo
# From the text: as §3, §1, §2
# The original method of WAIS was partially modified. The test was repeated 4 times and counted time-in seconds which was required to finish one line or checked how far the subject could go along one line in 30 seconds.
# patients with dementia [11] = assay: Hasegawa's scale for intelligence; format: in vivo; parameters: key to Hasegawa (change after treatment): improved; .dwnarw.: aggravated; →: unchanged; conditions: for Hasegawa (change after treatment): 10 percent change from pretreatment baseline score
# From the text: as §3, §1, §2
# An increase or decrease of 10 percent from the pretreatment baseline score was regarded as "improved" or "aggravated".
# patients with dementia [12] = assay: Related words paired memory test; format: in vivo; parameters: key to Related words paired memory test (change after treatment): improved; .dwnarw.: aggravated; →: unchanged
# From the text: as §3, §1, §2
# This retention test using 10 pairs of related words was conducted in 4 trials and the results were compared before and after the treatment.
# [13] = Case 7, left thalamic hemorrhage (case report)
# [14] = Case 9, cerebral infarction (case report)
# [15] = Case 1, Alzheimer's disease (case report)
structure (smiles),measurement,setting,value
N[C@H](C(=O)O)[C@H](O)c1ccc(O)c(O)c1 (relative stereo) [DL-Threo-DOPS],LD50,[1]; ip,~10000 mg/kg
same,LD50,[1]; po,≥ 10000 mg/kg
same,Side effects (clinically),"patients with dementia [2]; human, in vivo",almost no side effect has been observed
"N[C@H](C(=O)O)[C@H](O)c1ccc(O)c(O)c1 (relative stereo) [Threo-DOPS, threo-3,4-dihydroxyphenylserine]",Effectiveness as a NE precursor,parkinsonian patients,effectiveness of Threo-DOPS as a NE precursor
same,Effect on symptoms of dementia,patients with dementia [3]; summary statement,improving effect on some symptoms of dementia
same,Side effects,"patients with dementia [2]; human, in vivo",without any appreciable side effects
same,Effectiveness of combined use of DCI,decarboxylase,not so effective as that for L-DOPA
same,Conversion to norepinephrine (NE),[4]; in the living body,decarboxylated by an action of an aromatic L-amino acid decarboxylase existing in the living body and converted into norepinephrine (NE); also recorded: gradually converted to NE in the living body
same,Rate of decarboxylation relative to L-DOPA,[4]; previous study of the present applicants,considerably smaller than that of L-DOPA
"N[C@@H](Cc1ccc(O)c(O)c1)C(=O)O [L-DOPA, reference compound]",Decarboxylation to dopamine,[4]; in the living body,"decarboxylated to the corresponding catecholamine, dopamine"
N[C@H](C(=O)O)[C@H](O)c1ccc(O)c(O)c1 [L-Threo-DOPS],Bourdon's test (change after treatment),"patients with dementia [5]; Case 1, AZ",→
same,Bourdon's test (change after treatment),"patients with dementia [5]; Case 2, AZ",→
same,Bourdon's test (change after treatment),"patients with dementia [5]; Case 3, CI",→
same,"Bourdon's test, statistics","patients with dementia [5]; Case 4, CI",** (P<0.02)
same,Bourdon's test (change after treatment),"patients with dementia [5]; Case 6, AZ/CI, person",→
same,Bourdon's test (change after treatment),"patients with dementia [5]; Case 9, CI",→
same,LD50,[1]; ip,~10000 mg/kg
same,LD50,[1]; po,≥ 10000 mg/kg
same,Overall evaluation,"patients with dementia [3]; Case 1, Alzheimer's disease",moderately improved
same,Global evaluation,"patients with dementia [3]; Case 7, left thalamic hemorrhage",markedly improved
same,Global evaluation,"patients with dementia [3]; Case 9, cerebral infarction",moderately improved
same,Evaluation parameters showing aggravation,"patients with dementia [3]; Cases 1 to 9, Table 1",only a few evaluation parameters showed aggravation
same,Subjects showing improvements in one or more tests,"patients with dementia [3]; Cases 1 to 9, Table 1",all subjects but Case 6 showed improvements in one or more tests
same,Overall evaluation: efficacy against symptoms of patients with dementia,patients with dementia [3]; as a whole,had efficacy against symptoms of patients with dementia
same,N test (change after treatment),"patients with dementia [6]; Case 5, CI",→
same,N test (change after treatment),"patients with dementia [6]; Case 6, AZ/CI, person",→
same,N mental function test,patients with dementia [6]; [13],Improvements were obtained
same,N mental function test,patients with dementia [6]; [14],Improvements were found
same,P300,"patients with dementia [7]; Case 2, AZ",+
same,P300,"patients with dementia [7]; Case 3, CI",-
same,P300,"patients with dementia [7]; Case 4, CI",+
same,P300,"patients with dementia [7]; Case 5, CI",-
same,P300,"patients with dementia [7]; Case 6, AZ/CI, person",-
same,P300,patients with dementia [7]; [13],"could not be observed before the treatment, appeared after the treatment"
same,P300,"patients with dementia [7]; Case 9, CI",-
same,"Free association, Category","patients with dementia [8]; Case 2, AZ",→
same,"Free association, Letter","patients with dementia [8]; Case 2, AZ",→
same,"Free association, Category","patients with dementia [8]; Case 3, CI",→
same,"Free association, Category","patients with dementia [8]; Case 4, CI",→
same,"Free association, Letter","patients with dementia [8]; Case 4, CI",→
same,"Free association, Category","patients with dementia [8]; Case 5, CI",→
same,"Free association, Letter","patients with dementia [8]; Case 5, CI",→
same,"Free association, Category","patients with dementia [8]; Case 6, AZ/CI, person",→
same,"Free association, Letter","patients with dementia [8]; Case 6, AZ/CI, person",→
same,Free association of things,patients with dementia [8]; [13],Improvements were obtained
same,"Free association, Category","patients with dementia [8]; Case 9, CI",→
same,"Free association, Letter","patients with dementia [8]; Case 9, CI",→
same,Side effects,"patients with dementia [2]; Case 9, cerebral infarction",No remarkable side effects were found
same,Side effects (clinically),"patients with dementia [2]; human, in vivo",almost no side effect has been observed
same,Effect of L-isomer at half the amount of the DL-mixture,[9]; administered in half the amount of the DL-mixture,nearly the same effect as the DL-mixture
same,Activity of L-isomer relative to DL-form,[9]; clinical study,twice as active as the DL-form
same,"Digit symbol test, statistics","patients with dementia [10]; Case 1, AZ",* (P<0.05)
same,Digit symbol test,patients with dementia [10]; [15],Improvements were found
same,Hasegawa (change after treatment),"patients with dementia [11]; Case 3, CI",.dwnarw.
same,Hasegawa (change after treatment),"patients with dementia [11]; Case 6, AZ/CI, person",→
same,Hasegawa's scale,patients with dementia [11]; [13],Improvements were obtained
same,Hasegawa's scale,patients with dementia [11]; [14],Improvements were found
same,"Related words paired memory test, statistics","patients with dementia [12]; Case 1, AZ",*** (P<0.01)
same,Related words paired memory test,patients with dementia [12]; [15],Improvements were found
same,"Related words paired memory test, statistics","patients with dementia [12]; Case 2, AZ",*** (P<0.01)
same,Related words paired memory test (change after treatment),"patients with dementia [12]; Case 4, CI",→
same,Related words paired memory test (change after treatment),"patients with dementia [12]; Case 5, CI",.uparw.
same,"Related words paired memory test, statistics","patients with dementia [12]; Case 5, CI",* (P<0.05)
same,Related words paired memory test (change after treatment),"patients with dementia [12]; Case 6, AZ/CI, person",→
same,"Related words paired memory test, statistics","patients with dementia [12]; Case 9, CI",** (P<0.02)
same,Related words paired memory test,patients with dementia [12]; [14],Improvements were found
